Data as given in patent US4064228A (priority 1975, dated 1977).
Like-named read-outs stand apart in the source and are kept apart here.

Assays:
[1] = system: antibody raised to azomorphine conjugate (crude antisera); format: binding; settings: morphine taken as 100%; for % Cross-reactivity: M50/A50 (amounts for 50% inhibition of labeled hapten binding), Abraham method; for Cross-reactivity of morphine-specific antibody (general statement): under the conditions just described / similarly measured
Experimental: After 2 hours, an equal volume of a neutral, saturated ammonium sulfate solution was added. The resulting precipitates, sedimented by centrifugation at 3000 rpm for 15 minutes at 4° C, were washed once in 50% saturated ammonium sulphate solution. Each precipitate was dissolved in 0.2 ml NCS solubilizer (Amersham-Searle Corp.) and transferred to a scintillation counting vial containing 10 ml. Aquasol dispersant (New England Nuclear Corp.) and counted in a Nuclear Chicago Liquid Scintillation Spectrometer.
Cross-reactivity was computed by the method of Abraham, J. Clin. Endocrin. & Metab.

[2] = system: antibody to 3-carboxymethyl opium alkaloid-protein antigen (Leute); settings: Leute et al., J.A.M.A. 1972; Nature (New Biology) 1972; cited from earlier work
[3] = system: antibody to 3-carboxymethyl opium alkaloid-protein antigen (Spector); settings: Spector U.S. Pat. Nos. 3,709,868 and 3,822,245; cited from earlier work
[4] = system: opium alkaloid antibody (prior art, raised with morphine); settings: summary of all prior art known to applicant; cited from earlier work
[5] = system: antibody IgG raised to azomorphine conjugate (morphine-specific); format: binding
Experimental: The dried sorbent (300 mg) was washed with 50 ml. saline (0.9%) five times and suspended in a final volume of 15 ml, to which 5 ml of crude antiserum raised to the azomorphine conjugate of Example 5, supra was added. […] The matrix recovered by centrifugation was used as a slurry. 10 ml, […] HCL was added to sorbent. After centrifugation for 1 minute the filtered supernatant was neutralized at once with 1 M dibasic sodium phosphate. The acid base cycle was repeated three times. The recovered antibody solution was dialyzed against 12 liters of 0.1 M phosphate buffer, pH 7.4. […] The specificities of recovered antibody IgG were next determined by immune fluorescence techniques.
Quenching of antibody fluorescence was performed using antibody IgG from non pooled samples. […] Native alkaloid was added in increasing amounts to each tube containing azomorphine and IgG in a 10:1 hapten: antibody ratio (× 10^-10 moles/ml). The alkaloid was added to IgG simultaneously with or in advance of azomorphine. All dilutions were done in triplicate. Incubations including controls were carried out for 10 minutes to 12 hours at 23° C.

antibodies to serotonin = settings: reported by Spector et al., Science 179:1340 (1973); cited from earlier work
[6] = even in vast hapten excess, azomorphine:IgG 10:1

COc1ccc2c3c1O[C@H]1[C@@H](O)C=C[C@H]4[C@@H](C2)N(C)CC[C@@]341 [Codeine, codeine]
% Cross-reactivity [1]: 11% | Cross-reactivity of morphine-specific antibody (general statement) [1]: ≤ 20% | Cross-reactivity with codeine [2]: high cross-reactivity | Cross-reactivity with codeine [3]: very high cross-reactivity | Cross-reactivity with codeine [4]: extremely high cross-reactivity | Inhibition of fluorescence quenching [5, 6]: slight

COc1ccc2c(c1)[C@@]13CCCC[C@H]1[C@@H](C2)N(C)CC3 [Dextromethorphan, 3-methoxy N-methyl morphinan]
% Cross-reactivity [1]: 0.01% | Cross-reactivity of morphine-specific antibody (general statement) [1]: ≤ 0.1% | Inhibition of fluorescence quenching [5, 6]: slight

CCOc1ccc2c3c1O[C@H]1[C@@H](O)C=C[C@H]4[C@@H](C2)N(C)CC[C@@]341 [Ethylmorphine]
% Cross-reactivity [1]: 16%

CN1CC[C@]23c4c5cc(N=Nc6ccc(C(=O)O)cc6)c(O)c4O[C@H]2[C@@H](O)C=C[C@H]3[C@H]1C5 [Example 1, 2-(4'-carboxyphenylazo) morphine]
Cross-reactivity of morphine-specific antibody (general statement) [1]: about 100% | Association constants determined by the Sips equation applied to fluorescence data ([5]; antibody IgG from non pooled samples): 1e+07 to 3e+08 L/mol | Quenching maxima (antibody fluorescence) ([5]; antibody IgG from non pooled samples, azomorphine as quencher, 23° C): 56-77%

CCC(=O)C(CC(C)N(C)C)(c1ccccc1)c1ccccc1 (stereo not shown) [Methadone]
% Cross-reactivity [1]: 0.01% | Cross-reactivity of morphine-specific antibody (general statement) [1]: ≤ 0.1%

CC(=O)O[C@H]1C=C[C@H]2[C@H]3Cc4ccc(O)c5c4[C@@]2(CCN3C)[C@H]1O5 [Monoacetylmorphine]
% Cross-reactivity [1]: 7% | Cross-reactivity of morphine-specific antibody (general statement) [1]: not more than 10% | Inhibition of fluorescence quenching [5, 6]: slight

CN1CC[C@]23c4c5ccc(O)c4O[C@H]2[C@@H](O)C=C[C@H]3[C@H]1C5 [Morphine, morphine]
% Cross-reactivity [1]: 100% | Inhibition of fluorescence quenching ([5]; morphine 40 × 10^-10 moles/ml, 1 × 10^-10 moles/ml antibody, 10 × 10^-10 moles/ml azomorphine): completely inhibited

C=CCN1CC[C@]23c4c5ccc(O)c4O[C@H]2[C@@H](O)C=C[C@H]3[C@H]1C5 [N-allylnormorphine]
% Cross-reactivity [1]: 2%

CC(=O)Oc1ccc2c3c1O[C@H]1[C@@H](OC(C)=O)C=C[C@H]4[C@@H](C2)N(C)CC[C@@]341 [heroin, Diacetylmorphine]
% Cross-reactivity [1]: 7% | Cross-reactivity of morphine-specific antibody (general statement) [1]: not more than 10% | Inhibition of fluorescence quenching [5, 6]: slight

COc1ccc2[nH]cc(CCN)c2c1 [methoxyserotonin, 5-methoxytryptamine]
Cross-reactivity with serotonin antibodies (antibodies to serotonin): substantially complete cross-reactivity
